Target: WDR5 (Homo sapiens, UniProt P61964)
Experiment: Screening of putative WDR5 degraders by Western blot in MV4;11 and/or MIAPACA2 cells
Type: cell-based
Design: After WDR5 degrader treatment, cells were collected and lysed; endogenous in cells; host or cells: MV4;11 and/or MIAPACA2
Details: summary of screening, FIGS. 6-10
Method: MV4;11 cells were treated with DMSO or indicated compounds at 0.1 μM and 0.5 μM for 18 hours. […]. MIAPACA2 cells were treated with DMSO or indicated compounds at 0.5 μM and 1.0 μM for 18 hours.
MIAPACA2 cells were treated with DMSO or indicated compounds at 0.1 μM and 0.5 μM for 18 hours.
MIAPACA2 cells were treated with DMSO or indicated compounds at 0.5 μM and 1.0 μM or at 1.0 μM and 10 μM for 18 hours.
MV4;11 cells were treated with DMSO or indicated compounds at 0.1 μM and 1.0 μM for 18 hours.
WDR5 degraders were dissolved in DMSO and DMSO with no degraders was used as the control. 1×10^6 MV4;11 cells or 1×10^5 MIAPACA2 or 2×10^5 Hela cells were seeded in 2 mL medium for each well in […].
For prescreening of all the compounds, each test compound was added to the medium at indicated concentrations. After 18 h treatment, cells were collected.
After WDR5 degrader treatment, cells were collected and lysed. Total cell lysates were used for western blot. The following primary antibodies were used: WDR5 (Santa Cruz), vinculin (Cell Signaling Technology), tubulin (Cell Signaling Technology), GAPDH (Santa Cruz). Blots were imaged using fluorescence-labeled secondary antibodies on ChemiDoc™ Imaging Systems.

effective degradation of WDR5 in MV4;11 and/or MIAPACA2 cells	Compound
able to effectively degrade WDR5	Cc1ncsc1-c1ccc(CNC(=O)[C@@H]2C[C@@H](O)CN2C(=O)[C@@H](NC(=O)CCCCCCCC(=O)N2CCN(Cc3cnc(N4CC=C(c5cc(NC(=O)c6c[nH]c(=O)cc6C(F)(F)F)c(N6C[C@@H](C)N(C)[C@@H](C)C6)cc5F)CC4)nc3)CC2)C(C)(C)C)cc1 [XF078-146, N-(4-fluoro-5-(1-(5-((4-(9-(((S)-1-((2S,4R)-4-hydroxy-2-((4-(4-methylthiazol-5-yl)benzyl)carbamoyl)pyrrolidin-1-yl)-3,3-dimethyl-1-oxobutan-2-yl)amino)-9-oxononanoyl)piperazin-1-yl)methyl)pyrimidin-2-yl)-1,2,3,6-tetrahydropyridin-4-yl)-2-((3S,5R)-3,4,5-trimethylpiperazin-1-yl)phenyl)-6-oxo-4-(trifluoromethyl)-1,6-dihydropyridine-3-carboxamide]
able to effectively degrade WDR5	C[C@@H]1CN(c2ccc(-c3cc(CN4CCN(CCNC(=O)CCCCCNc5cccc6c5C(=O)N(C5CCC(=O)NC5=O)C6=O)CC4)ccc3F)cc2NC(=O)c2c[nH]c(=O)cc2C(F)(F)F)C[C@H](C)N1C (stereo partly drawn) [XF078-22, N-(5′-((4-(2-(6-((2-(2,6-dioxopiperidin-3-yl)-1,3-dioxoisoindolin-4-yl)amino)hexanamido)ethyl)piperazin-1-yl)methyl)-2′-fluoro-4-((3S,5R)-3,4,5-trimethylpiperazin-1-yl)-[1,1′-biphenyl]-3-yl)-6-oxo-4-(trifluoromethyl)-1,6-dihydropyridine-3-carboxamide]
able to effectively degrade WDR5	C[C@@H]1CN(c2ccc(-c3cc(CN4CCN(CCNC(=O)CCCCCCNc5cccc6c5C(=O)N(C5CCC(=O)NC5=O)C6=O)CC4)ccc3F)cc2NC(=O)c2c[nH]c(=O)cc2C(F)(F)F)C[C@H](C)N1C (stereo partly drawn) [XF078-23, N-(5′-((4-(2-(7-((2-(2,6-dioxopiperidin-3-yl)-1,3-dioxoisoindolin-4-yl)amino)heptanamido)ethyl)piperazin-1-yl)methyl)-2′-fluoro-4-((3S,5R)-3,4,5-trimethylpiperazin-1-yl)-[1,1′-biphenyl]-3-yl)-6-oxo-4-(trifluoromethyl)-1,6-dihydropyridine-3-carboxamide]
able to effectively degrade WDR5	C[C@@H]1CN(c2cc(F)c(C3=CCN(c4ncc(CN5CCN(C(=O)CCOCCOCCOCCNc6cccc7c6C(=O)N(C6CCC(=O)NC6=O)C7=O)CC5)cn4)CC3)cc2NC(=O)c2c[nH]c(=O)cc2C(F)(F)F)C[C@H](C)N1C (stereo partly drawn) [XF078-158, N-(5-(1-(5-((4-(3-(2-(2-(2-((2-(2,6-dioxopiperidin-3-yl)-1,3-dioxoisoindolin-4-yl)amino)ethoxy)ethoxy)ethoxy)propanoyl)piperazin-1-yl)methyl)pyrimidin-2-yl)-1,2,3,6-tetrahydropyridin-4-yl)-4-fluoro-2-((3S,5R)-3,4,5-trimethylpiperazin-1-yl)phenyl)-6-oxo-4-(trifluoromethyl)-1,6-dihydropyridine-3-carboxamide]

The remaining lines, values behind:

Compound	effective degradation of WDR5 in MV4;11 and/or MIAPACA2 cells
C[C@@H]1CN(c2cc(F)c(-c3cnc(N4CCN(C(=O)CCCCCCNc5cccc6c5C(=O)N(C5CCC(=O)NC5=O)C6=O)CC4)nc3)cc2NC(=O)c2ccc(F)cc2C(F)(F)F)C[C@H](C)N1C (stereo partly drawn) [XF078-121, N-(5-(2-(4-(7-((2-(2,6-dioxopiperidin-3-yl)-1,3-dioxoisoindolin-4-yl)amino)heptanoyl)piperazin-1-yl)pyrimidin-5-yl)-4-fluoro-2-((3S,5R)-3,4,5-trimethylpiperazin-1-yl)phenyl)-4-fluoro-2-(trifluoromethyl)benzamide]	able to effectively degrade WDR5
Cc1ncsc1-c1ccc(CNC(=O)[C@@H]2C[C@@H](O)CN2C(=O)[C@@H](NC(=O)CCCCC(=O)N2CCN(c3ncc(-c4cc(NC(=O)c5ccc(F)cc5C(F)(F)F)c(N5C[C@@H](C)N(C)[C@@H](C)C5)cc4F)cn3)CC2)C(C)(C)C)cc1 [XF078-110, (2S,4R)-1-((S)-2-(6-(4-(5-(2-fluoro-5-(4-fluoro-2-(trifluoromethyl)benzamido)-4-((3S,5R)-3,4,5-trimethylpiperazin-1-yl)phenyl)pyrimidin-2-yl)piperazin-1-yl)-6-oxohexanamido)-3,3-dimethylbutanoyl)-4-hydroxy-N-(4-(4-methylthiazol-5-yl)benzyl)pyrrolidine-2-carboxamide]	able to effectively degrade WDR5
C[C@@H]1CN(c2cc(F)c(C3=CCN(c4ncc(CN5CCN(C(=O)CCOCCOCCNc6cccc7c6C(=O)N(C6CCC(=O)NC6=O)C7=O)CC5)cn4)CC3)cc2NC(=O)c2c[nH]c(=O)cc2C(F)(F)F)C[C@H](C)N1C (stereo partly drawn) [XF078-157, N-(5-(1-(5-((4-(3-(2-(2-((2-(2,6-dioxopiperidin-3-yl)-1,3-dioxoisoindolin-4-yl)amino)ethoxy)ethoxy)propanoyl)piperazin-1-yl)methyl)pyrimidin-2-yl)-1,2,3,6-tetrahydropyridin-4-yl)-4-fluoro-2-((3S,5R)-3,4,5-trimethylpiperazin-1-yl)phenyl)-6-oxo-4-(trifluoromethyl)-1,6-dihydropyridine-3-carboxamide]	able to effectively degrade WDR5
C[C@@H]1CN(c2cc(F)c(-c3cnc(N4CCN(C(=O)CCOCCOCCOCCOCCNc5cccc6c5C(=O)N(C5CCC(=O)NC5=O)C6=O)CC4)nc3)cc2NC(=O)c2ccc(F)cc2C(F)(F)F)C[C@H](C)N1C (stereo partly drawn) [XF078-126, N-(5-(2-(4-(1-((2-(2,6-dioxopiperidin-3-yl)-1,3-dioxoisoindolin-4-yl)amino)-3,6,9,12-tetraoxapentadecan-15-oyl)piperazin-1-yl)pyrimidin-5-yl)-4-fluoro-2-((3S,5R)-3,4,5-trimethylpiperazin-1-yl)phenyl)-4-fluoro-2-(trifluoromethyl)benzamide]	able to effectively degrade WDR5
Cc1ncsc1-c1ccc(CNC(=O)[C@@H]2C[C@@H](O)CN2C(=O)[C@@H](NC(=O)COCCOCC(=O)N2CCN(c3ncc(-c4cc(NC(=O)c5ccc(F)cc5C(F)(F)F)c(N5C[C@@H](C)N(C)[C@@H](C)C5)cc4F)cn3)CC2)C(C)(C)C)cc1 [XF078-101, (2S,4R)-1-((S)-2-(2-(2-(2-(4-(5-(2-fluoro-5-(4-fluoro-2-(trifluoromethyl)benzamido)-4-((3S,5R)-3,4,5-trimethylpiperazin-1-yl)phenyl)pyrimidin-2-yl)piperazin-1-yl)-2-oxoethoxy)ethoxy)acetamido)-3,3-dimethylbutanoyl)-4-hydroxy-N-(4-(4-methylthiazol-5-yl)benzyl)pyrrolidine-2-carboxamide]	able to effectively degrade WDR5

Reference: patent US12110295B2, “WD40 repeat domain protein 5 (WDR5) degradation/disruption compounds and methods of use” (Icahn School of Medicine at Mount Sinai, priority 2018, dated 2024)
